Here are results for 14 compounds from PubChem BioAssay (NCI).

Where “and” joins values, the source holds several entries; their conditions need not be identical. Identical values can stand only once.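 48-hour exposure; five concentrations; linearly interpolated endpoints. GI50: concentration for 50% inhibition of growth. TGI: concentration producing complete growth inhibition.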

Test in all cases: growth of human tumour cells (NCI), 48 h
Test [1] relates to HL-60(TB) leukemia.
Test [2] concerns HCC-2998 colon.
The subject of test [3] is SK-MEL-2 melanoma.
Test [4] deals with SF-295 CNS.
Test [5] concerns SW-620 colon.
For test [6], the system named is EKVX NSCLC.
The subject of test [7] is OVCAR-3 ovarian.
The test system of test [8] is SK-MEL-5 melanoma.
In test [9] the test system is UO-31 renal.

Regarding `CCOC(=O)CCC(NC(=O)c1ccc(N=Cc2nc3cc(C(F)(F)F)ccc3nc2-c2ccccc2)cc1)C(=O)OCC` (stereo not drawn), the GI50 in test [1] is 65.3 µM; in [2] it was above 100 µM; in [3], 37.7 µM; in [4], 71.9 µM; in test [5] it was above 100 µM; in test [6], above 100 µM. The GI50 in [7], in test [8] and in test [9] was above 100 µM throughout. In addition, the TGI in test [1] is 50 µM and > 100 µM; in test [2] it was above 100 µM; in [3], 34.7 µM and > 100 µM; in test [4], 31.8 µM and > 100 µM; in test [5], above 100 µM; in test [6], 50 µM and > 100 µM. The TGI in [7] is 50 µM and > 100 µM; in [8] it was 50 µM and > 100 µM; in test [9], above 100 µM.

With `Cc1cc(Br)cc(C)c1NC(=O)C(=O)CC(=O)c1sc(-n2nc(-c3ccccc3)cc2-c2ccccc2)nc1C`, the TGI in test [1], in [2], in test [4], in [5], in test [6] and in test [7] was above 100 µM each time. This compound also gave a TGI in test [9] above 100 µM.

`O=[N+]([O-])c1ccc(-c2ccc(/C=N/n3c(-c4ccc(Cl)cc4)n[nH]c3=S)o2)cc1`: the TGI was above 100 µM in test [1]; above 100 µM in test [2]; above 100 µM in [3]; above 64 µM in test [4]; above 68.5 µM in [5]; above 100 µM in test [6]. Moreover, the TGI was above 66.8 µM in test [7], 49.8 µM in test [8] and above 100 µM in test [9].

Turning to `N[C@H]1C2C3CC4C5CC(C42)C1(c1ccccc1)C53` (stereo partly drawn), the TGI in test [1], in test [2], in test [3], in [4], in test [5] and in test [6] was above 100 µM each time. The TGI in [7], in test [8] and in test [9] was above 100 µM in each case.

With `O=S(=O)(O)CS(=O)(=O)OCCCl`, the TGI in test [1], in test [2], in test [4], in test [5], in test [6] and in [7] was above 100 µM each time. Also, the TGI in [8] and in [9] was above 100 µM throughout.

As for `CCOC(=O)/C(C1=N[C@H](C(=O)OCC)CS1)=C(\C)O`, the TGI in [1], in test [2], in test [3], in [4], in test [5] and in test [6] was above 100 µM in each case. Also, the TGI in test [7], in test [8] and in [9] was above 100 µM each time.

With `CC(=O)Oc1c(C)n(CCCl)ccc1=O`, the TGI in test [1], in test [3], in [4], in test [6], in test [7] and in test [8] was above 100 µM in each case. The TGI in [9] is above 100 µM.

Take `CCOC(=O)C1C=C2O[C@@H]3OC4(CCCCC4)O[C@@H]3C2[C@H]2C(=O)C=CC(=O)[C@@]12C(=O)OC` (stereo partly drawn): the TGI in [1] came out at 5.83 µM; in test [2], 28 µM; in test [3] it was 30.6 µM; in test [4] it was 32.6 µM; in test [5], 28.6 µM; in [6] it was 36.1 µM. Further, the TGI in test [7] came out at 22.1 µM; in [8], 33.9 µM; in test [9], 29.9 µM.

As for `CC1=C(C(=O)Nc2ccc([N+](=O)[O-])cc2)C(c2ccco2)C(C(=O)Nc2ccc([N+](=O)[O-])cc2)=C(C)N1`, the TGI was 26.5 µM in test [1]; 47.9 µM in test [2]; 28 µM in test [3]; above 100 µM in [4]; above 100 µM in test [5]; 73.6 µM in [6]. The figures for the TGI in [7], in [8] and in test [9] were 88.3 µM, 93.4 µM and 60.1 µM, respectively.

In the case of `CCCCN(CCCC)C(=O)C(=O)CC(=O)c1ccc(Br)cc1`, the TGI in [1], in [2], in [3], in test [4], in test [5] and in test [6] was above 100 µM each time. Moreover, the TGI in test [7], in test [8] and in [9] was above 100 µM throughout.

For `O=C1C2=C(c3ccccc31)C(c1ccc(Cl)cc1)N1C(=O)CCSC1=N2` (stereo not drawn), the TGI in test [1], in [2], in [3], in test [4], in test [5] and in test [6] was above 100 µM in each case. Moreover, the TGI in [7], in [8] and in test [9] was above 100 µM in each case.

Take `O=C(O)CN(c1ccc(Cl)cc1)S(=O)(=O)c1ccccc1`: the TGI in test [1], in test [3], in test [4], in test [5], in test [6] and in test [7] was above 100 µM throughout. For the same compound, the TGI in test [8] and in test [9] was above 100 µM each time.

Consider `COC1C=C(Nc2cccc(Cl)c2)C(=O)C1` (stereo not drawn), for which the TGI in test [1] was above 100 µM; in test [2] it was above 100 µM; in [3], above 100 µM; in [4] it was above 100 µM; in test [5] it was above 100 µM; in test [6] it was 55.3 µM. Also, the TGI in test [7], in [8] and in test [9] was above 100 µM in each case.

With `Cn1nc(-c2ccccc2NC(=O)C(F)(F)F)c(=O)n(C)c1=S`, the TGI in test [2] was above 100 µM; in test [3] it was 60.7 µM; in test [4], above 100 µM; in test [5], above 100 µM; in test [6], 86.5 µM; in test [7], 40.6 µM. Moreover, the results for the TGI in test [8] and in test [9] were above 100 µM and 74.4 µM, respectively.
